Results as given in US8633207B2, “Quinazoline compounds and methods of use thereof” (Ambit Biosciences Corporation, priority 2010, dated 2014).

Experiments:
Tyk2 = molecular target: T1, Tyk2 (Homo sapiens, UniProt P29597); assay: Competition binding assay to determine Kd against JAK kinases: Tyk2
T1 construct: made in house; host or cells: T7 phage display, or HEK-293 cells (alternative)
Text: (§1) Competition Binding Assay to Determine Binding Constants (Kd) of the Compounds Against JAK Kinases
(§2) Competition binding assays used herein were developed, validated and performed as described in Fabian et al., Nature Biotechnology 2005, 23, 329-336. Kinases were produced as fusions to T7 phage (See, Fabian et al. or WO04/015142) or alternatively, the kinases were expressed in HEK-293 cells and subsequently tagged with DNA for PCR detection (See, WO08/005,310). For the binding assays, streptavidin-coated magnetic beads were treated with biotinylated affinity ligands for 30 min at rt to generate affinity resins. The liganded beads were blocked with excess biotin and washed with blocking buffer (SeaBlock (Pierce), 1% BSA, 0.05% Tween 20, 1 mM DTT) to remove unbound ligand and to reduce non-specific binding. Binding reactions were assembled by combining kinase, liganded affinity beads, and test compounds in 1× binding buffer (20% SeaBlock, 0.17×PBS, 0.05% Tween 20, 6 mM DTT). Test compounds were prepared as 100× stocks in DMSO and rapidly diluted into the aqueous environment. DMSO was added to control assays lacking a test compound. Primary screen interactions were performed in polypropylene 384-well plates in a final volume of 34 μL, while Kd determinations were performed in polystyrene 96-well plates in a final volume of 135 μL. The assay plates were incubated at room temperature with shaking for 1 hour, long enough for binding reactions to reach equilibrium, and the affinity beads were washed extensively with wash buffer (1×PBS, 0.05% Tween 20) to remove unbound protein. The beads were then resuspended in elution buffer (1×PBS, 0.05% Tween 20, 2 μM non-biotinylated affinity ligand) and incubated at room temperature with shaking for 30 min. The kinase concentration in the eluates was measured by quantitative PCR. Each kinase was tested individually against each compound. Kds were determined using eleven serial threefold dilutions. A selectivity score, which is a quantitative measure of selectivity of a compound against a panel of enzymes, may be calculated for a compound by dividing the number of enzymes for which a compound meets a set criteria, (for example, a binding constant of 100 nM or less), by the total number of enzymes tested.

JAK3 = molecular target: T2, JAK3 (Homo sapiens, UniProt P52333); assay: Competition binding assay to determine Kd against JAK kinases: JAK3
T2 construct: made in house; host or cells: T7 phage display, or HEK-293 cells (alternative)
T2 sequence (P52333 1-1124): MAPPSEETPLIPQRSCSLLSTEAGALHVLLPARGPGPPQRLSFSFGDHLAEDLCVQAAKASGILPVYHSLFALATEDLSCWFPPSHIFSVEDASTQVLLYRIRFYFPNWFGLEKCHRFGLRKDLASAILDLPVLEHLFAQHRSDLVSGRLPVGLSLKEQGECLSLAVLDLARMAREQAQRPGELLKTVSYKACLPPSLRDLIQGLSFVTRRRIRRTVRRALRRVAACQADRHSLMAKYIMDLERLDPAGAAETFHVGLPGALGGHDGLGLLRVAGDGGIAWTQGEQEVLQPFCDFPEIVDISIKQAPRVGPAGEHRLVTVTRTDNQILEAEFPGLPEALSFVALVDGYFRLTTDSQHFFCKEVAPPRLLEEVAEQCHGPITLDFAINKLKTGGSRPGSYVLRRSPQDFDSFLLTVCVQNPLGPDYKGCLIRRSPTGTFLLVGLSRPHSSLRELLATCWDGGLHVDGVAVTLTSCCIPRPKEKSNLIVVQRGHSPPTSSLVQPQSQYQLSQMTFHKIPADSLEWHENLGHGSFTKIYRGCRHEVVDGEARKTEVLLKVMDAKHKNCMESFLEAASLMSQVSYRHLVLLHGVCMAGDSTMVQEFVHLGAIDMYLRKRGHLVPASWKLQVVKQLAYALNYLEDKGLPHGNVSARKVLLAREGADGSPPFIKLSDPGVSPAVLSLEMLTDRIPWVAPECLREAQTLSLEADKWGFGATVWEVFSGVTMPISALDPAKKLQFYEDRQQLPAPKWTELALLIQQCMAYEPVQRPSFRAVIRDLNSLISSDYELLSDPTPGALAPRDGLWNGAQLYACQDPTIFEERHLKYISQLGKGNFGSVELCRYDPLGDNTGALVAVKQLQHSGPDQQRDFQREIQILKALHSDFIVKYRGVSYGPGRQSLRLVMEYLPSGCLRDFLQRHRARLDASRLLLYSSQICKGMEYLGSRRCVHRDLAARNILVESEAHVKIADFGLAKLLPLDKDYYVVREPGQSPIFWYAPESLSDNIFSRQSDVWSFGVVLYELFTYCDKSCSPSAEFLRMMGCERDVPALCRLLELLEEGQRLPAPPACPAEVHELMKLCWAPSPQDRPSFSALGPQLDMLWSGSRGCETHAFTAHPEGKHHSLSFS
Text: as §1, §2

[1] = tested on: GM-CSFR/JAK2/STAT5 pathway; assay: csTF-1 cell-based reporter assay; details: Homo sapiens; csTF-1 cells, GM-CSF at 2 ng/mL, 4 hours; read-out: Cell Assay: CS TF-1 reporter assay IC50
Protocol: csTF-1 Cell-Based Reporter Assay
csTF-1 cells are derived from the human erythroleukemia cell line that is growth dependent on GM-CSF and has an intact GM-CSFR/JAK2/STAT5 pathway. The cell line contains stably integrated beta-lactamase reporter gene under the control of the […] (irf 1) response element recognized by the activated transcription factor STATS. csTF-1 cells (Invitrogen K1219) were washed with assay media (97% OPTIMEM/0.5% dialyzed FBS/0.1 mM NEAA/1 mM Na pyr/P/S) and seeded in the same media at 5×10^5 cell/mL in T150 flask. After 16 hour incubation, cells were seeded at 2×10^5 cell/well in 50 μl volume, into Costar, clear bottom, 96-well assay plates. Serial dilutions of compounds were added to the plates with final DMSO concentration at 0.5% and GM-CSF at 2 ng/mL and the plates were then incubated at […] and 5% CO2 for 4 hours. The plates were brought to room temperature before adding Substrate Mixture according to manufacturer's protocol (Invitrogen, Catalog #K1085). The assay plates containing the substrate mixture were incubated in the dark at room temperature for 2 hours. Blue and green fluorescence was measured with excitation at 409 nm and emission at 460 nm (for blue) and excitation at 409 nm and emission at 530 nm (for green) using Spectra Max Gemini EM.

JAK2 = molecular target: T3, JAK2 (Homo sapiens, UniProt O60674); assay: Competition binding assay to determine Kd against JAK kinases: JAK2
T3 construct: made in house; host or cells: T7 phage display, or HEK-293 cells (alternative)
Text: as §1, §2

T3 sequence (O60674 whole entry): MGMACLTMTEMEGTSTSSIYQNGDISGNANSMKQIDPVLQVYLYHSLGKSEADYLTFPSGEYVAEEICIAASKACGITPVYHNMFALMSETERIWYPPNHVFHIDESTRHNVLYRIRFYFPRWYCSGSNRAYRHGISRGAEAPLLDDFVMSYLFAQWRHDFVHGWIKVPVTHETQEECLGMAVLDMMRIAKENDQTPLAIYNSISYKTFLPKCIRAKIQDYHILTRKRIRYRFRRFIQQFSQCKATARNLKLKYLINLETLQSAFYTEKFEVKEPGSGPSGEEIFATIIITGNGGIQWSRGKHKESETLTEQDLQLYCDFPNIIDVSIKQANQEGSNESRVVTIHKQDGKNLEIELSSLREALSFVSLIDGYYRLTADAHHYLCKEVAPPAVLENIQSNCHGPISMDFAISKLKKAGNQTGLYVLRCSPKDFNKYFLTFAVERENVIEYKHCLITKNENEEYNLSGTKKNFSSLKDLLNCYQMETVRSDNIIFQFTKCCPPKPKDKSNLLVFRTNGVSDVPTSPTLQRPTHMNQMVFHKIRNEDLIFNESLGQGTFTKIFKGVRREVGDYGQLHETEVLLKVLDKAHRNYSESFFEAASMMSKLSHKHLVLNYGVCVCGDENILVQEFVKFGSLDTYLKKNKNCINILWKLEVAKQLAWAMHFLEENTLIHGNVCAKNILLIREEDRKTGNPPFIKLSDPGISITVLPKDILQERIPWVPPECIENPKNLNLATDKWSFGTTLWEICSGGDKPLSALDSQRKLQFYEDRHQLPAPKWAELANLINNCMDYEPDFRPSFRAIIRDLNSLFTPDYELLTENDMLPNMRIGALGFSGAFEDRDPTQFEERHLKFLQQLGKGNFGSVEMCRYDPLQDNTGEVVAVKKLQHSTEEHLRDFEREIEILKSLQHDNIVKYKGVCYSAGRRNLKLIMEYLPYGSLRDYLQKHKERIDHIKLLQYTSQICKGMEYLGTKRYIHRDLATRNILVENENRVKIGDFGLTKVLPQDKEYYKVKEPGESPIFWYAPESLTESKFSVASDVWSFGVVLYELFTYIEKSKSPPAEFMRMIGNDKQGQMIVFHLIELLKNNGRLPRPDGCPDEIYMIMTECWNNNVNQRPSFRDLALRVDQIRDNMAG
T1 sequence (P29597 whole entry): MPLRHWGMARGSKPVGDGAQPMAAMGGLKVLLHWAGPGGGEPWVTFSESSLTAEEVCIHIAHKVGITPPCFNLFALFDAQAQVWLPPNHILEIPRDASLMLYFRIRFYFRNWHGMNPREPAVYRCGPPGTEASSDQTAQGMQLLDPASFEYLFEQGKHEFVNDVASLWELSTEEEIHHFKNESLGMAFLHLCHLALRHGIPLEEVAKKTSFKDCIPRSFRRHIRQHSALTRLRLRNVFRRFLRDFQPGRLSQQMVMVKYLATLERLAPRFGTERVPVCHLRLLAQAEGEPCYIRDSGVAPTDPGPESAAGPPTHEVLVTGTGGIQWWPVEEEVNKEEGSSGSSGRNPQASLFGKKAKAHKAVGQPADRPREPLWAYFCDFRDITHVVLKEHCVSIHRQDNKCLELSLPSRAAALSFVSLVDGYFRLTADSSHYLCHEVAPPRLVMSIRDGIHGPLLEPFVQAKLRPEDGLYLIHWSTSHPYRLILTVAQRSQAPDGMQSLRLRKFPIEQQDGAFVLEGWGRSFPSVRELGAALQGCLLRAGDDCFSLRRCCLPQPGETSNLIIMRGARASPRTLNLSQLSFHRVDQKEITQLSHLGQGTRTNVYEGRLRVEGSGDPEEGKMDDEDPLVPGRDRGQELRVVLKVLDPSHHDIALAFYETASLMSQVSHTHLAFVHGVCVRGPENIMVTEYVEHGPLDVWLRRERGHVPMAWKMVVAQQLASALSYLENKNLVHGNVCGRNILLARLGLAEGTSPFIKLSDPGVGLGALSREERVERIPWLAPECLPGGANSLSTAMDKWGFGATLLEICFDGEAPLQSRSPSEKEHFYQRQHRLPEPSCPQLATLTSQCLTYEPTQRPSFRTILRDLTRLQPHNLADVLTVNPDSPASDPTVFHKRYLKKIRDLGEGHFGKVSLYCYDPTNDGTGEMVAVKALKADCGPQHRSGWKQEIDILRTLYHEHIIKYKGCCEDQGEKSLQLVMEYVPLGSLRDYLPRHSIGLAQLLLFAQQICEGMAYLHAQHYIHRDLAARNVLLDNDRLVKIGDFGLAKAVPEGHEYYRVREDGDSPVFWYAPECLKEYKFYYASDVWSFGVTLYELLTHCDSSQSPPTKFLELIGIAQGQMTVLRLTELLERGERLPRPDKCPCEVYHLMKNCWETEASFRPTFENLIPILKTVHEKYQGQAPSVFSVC

Structure (SMILES) | Kd (Tyk2) [nM] | Kd (JAK3) [nM] | IC50 [1] [nM] | Kd (JAK2) [nM]
Cc1cc(Nc2nc(C(F)(F)c3ccc(F)cn3)nc3c(C(=O)NC4COC4)cccc23)n[nH]1 [Example 45, 2-(difluoro(5-fluoropyridin-2-yl)methyl)-4-((5-methyl-1H-pyrazol-3-yl)amino)-N-(oxetan-3-yl)quinazoline-8-carboxamide] | ≤ 10 | ≤ 10 | ≤ 100 | ≤ 1
Cc1cc(Nc2nc(C(F)(F)c3ccc(F)cn3)nc3c(C(N)=O)cccc23)n[nH]1 [Example 39, 2-(difluoro(5-fluoropyridin-2-yl)methyl)-4-((5-methyl-1H-pyrazol-3-yl)amino)quinazoline-8-carboxamide] | ≤ 10 | ≤ 10 | ≤ 100 | ≤ 1
Cc1cc(Nc2nc(C(F)(F)c3ccc(F)cn3)nc3c(N4CCOCC4=O)cccc23)n[nH]1 [Example 42, 4-(2-(difluoro(5-fluoropyridin-2-yl)methyl)-4-((5-methyl-1H-pyrazol-3-yl)amino)quinazolin-8-yl)morpholin-3-one] | ≤ 10 | ≤ 10 | 100 to 500 | ≤ 1

Further lines, results first:

Kd (Tyk2) [nM] | Kd (JAK3) [nM] | IC50 [1] [nM] | Kd (JAK2) [nM] | Structure (SMILES)
≤ 10 | 10 to 100 | 100 to 500 | ≤ 1 | Cc1cc(Nc2nc(C(F)(F)c3ccc(F)cn3)nc3c(Br)cccc23)n[nH]1 [Example 11, 8-bromo-2-(difluoro(5-fluoropyridin-2-yl)methyl)-N-(5-methyl-1H-pyrazol-3-yl)quinazolin-4-amine]
≤ 10 | 10 to 100 | ≤ 100 | 1 to 10 | Cc1cc(Nc2nc(C(=O)c3ccc(F)cn3)nc3ccccc23)n[nH]1 [Example 1, (5-fluoropyridin-2-yl)(4-(5-methyl-1H-pyrazol-3-ylamino)quinazolin-2-yl)methanone]
